melting point [°C]	SMILES
155 to 157	CC(C)(C)OC(=O)N[C@@H](Cc1cncn1COCc1ccccc1)C(=O)O
126 to 128	O=C(NCCO)c1ccc(C(=O)N2CCN(CCO)CC2)nc1
178 to 179	C=Cn1cc(C(=O)O)c(=O)c2cc(F)c(N3CCN(C)C(C)C3)c(F)c21 (stereo not given)
73 to 75	O=C(NCCNCCNC(=O)OCc1ccccc1)OCc1ccccc1
191 to 192	COc1ccc2c(c1)c(-c1ccccc1)cc(=O)n2Cc1c(Cl)cncc1Cl
119	CN(C(=O)CCc1ccc(CN2CCC3(CCCC3)CC2)cc1)c1ccc(-c2ccc(Cl)cc2)cc1
167 to 168	COc1ccc2c(c1)N(C)C(=O)N(c1ccc(Cl)cc1)S2(=O)=O
256 to 258	CS(=O)(=O)c1c(N)nc(N)nc1Cl
300 to 302	O=C(Nc1ccc(F)cc1)N1CC2C(C1)C2Nc1ncc2cc(-c3ccccc3Cl)c(=O)n(-c3ccc(F)cc3)c2n1 (stereo not given)
90 to 91	COc1ccc2cc(C(=O)[C@H](C)Br)ccc2c1
64 to 66	CCc1ccc(NCc2ccc(N(C)C)cc2)cc1
147 to 148	O=C(O)c1ccc(OCCCO/N=C/c2ccc(C(F)(F)F)cc2)cc1NC(=O)c1ccccc1C(F)(F)F
87	CCOC(=O)C(=CNC(C)(C)C)C(=O)c1cc(F)c(Cl)cc1Cl
147	CNc1nc(-c2ccc(Br)cc2)cs1
93 to 94	CCc1nc(/C=C\c2cn(-c3ccccc3)nc2OCc2ccc(OCc3csc(N4CCCCC4)n3)c(OC)c2)cs1
157 to 158	CN(CC(=O)O)C(=O)CCS
302 to 304	O=c1cc(-c2ccncc2)nc2n1CCC(C(F)(F)F)N2 (stereo not given)
42 to 44	CN(C)c1ccc(/C=C/c2c(F)cccc2Cl)cc1
340	O=C1NC(N2CCCCCC2)=N/C1=C\c1c[nH]c2ncc(C(F)(F)F)cc12
184 to 187	COc1ccc(Oc2c(Cl)cc(-n3ncc(=O)[nH]c3=O)cc2Cl)cc1C=O
144	O=C(Cc1ccc(F)cc1)NC1CCN(Cc2ccc(Br)cc2)CC1
177 to 181	O=C(O)c1cc2cc(Cl)ccc2nc1NC(Cc1cccc(F)c1)C(=O)O (stereo not given)
137 to 139	CCC(CC)n1cc(C)nc(N2CCc3cc(Cl)cc(Cl)c32)c1=O

melting point [°C]	SMILES
214	Cc1cc(Nc2nc(Cl)nc(Nc3cc(C)c(O)c(C(C)(C)C)c3)n2)cc(C(C)(C)C)c1O
223	O=C(O)CCCCN1C(=O)c2ccc(C(=O)O)cc2C1=O
113	CNc1cc(C)cc([N+](=O)[O-])c1N
200 to 202	CC(=O)NCC1CN(c2ccc(N3CCN(c4nnc(C#N)s4)C(F)C3)cc2)C(=O)O1 (stereo not given)
154 to 156	CC(C#Cc1ccc(C(=O)Cc2ccc(F)cc2)o1)N(O)C(N)=O (stereo not given)
125 to 126	CC(=O)OC(C)(C)c1nnc(-c2ccc3occ(-c4cc(F)ccc4F)c3c2)o1
142 to 144	COc1cccc(OC)c1-c1ccc(C[C@H](NC(=O)c2c(Cl)cccc2Cl)C(=O)O)cc1NC(C)=O
104 to 106	COc1ccc2[nH]c(SCc3ncnc(N4CCCC4)c3C)nc2c1
155 to 157	COc1ccccc1CCC1CCCCn2c1nc(-c1ccncn1)cc2=O (racemic)
152 to 153	CCc1noc(-c2cn(-c3cccnc3)cn2)n1
282 to 286	CN1C(=O)c2ccccc2N=C(N)C1c1ccccc1 (stereo not given)
208	CCOC(=O)c1scc2c1CN(C)C(=O)c1cncn1-2
105 to 106	Cc1nc(Cl)c(C)c(-c2c(C)c(N)c(C)c3nsnc23)n1
133 to 134	COc1cc([C@H]2CS[C@@H](c3cc(OC)c(OC)c([N+](=O)[O-])c3)S2)cc(OC)c1OC (relative stereo)
96.5 to 97	CCCCOc1ccc(C=C(C#N)S(C)(=O)=O)cc1
126	Cn1nnc2cccc(C=O)c21
206 to 207	Cc1ccc(-c2nc(N3CCOCC3)c3c(C)c(C#N)sc3n2)cc1
248	C/C(=N\O)c1cccc(NC(=O)NCC(=O)N(CC(=O)N2CCCC(C)(C)C2)c2ccccc2)c1
> 250	CCOC(=O)c1cc2cc[nH]c2cc1N
166 to 167	CC(=O)Oc1cc2c(cc1C(C)(C)CC(C)(C)C)OC(C)(COc1ccc([N+](=O)[O-])cc1)CC2=O (stereo not given)
86	CCCCOc1ccc(S(=O)(=O)C2(C(=O)OCC)CCN(Cc3ccc(Cl)c(Cl)c3)CC2)cc1
220	O=C(c1ccccc1)N1CCC(c2c[nH]c3cc(F)ccc23)CC1
167 to 170	CC(C)c1cc2c(cc1Oc1cnc(N)nc1N)OCCN2C

melting point [°C]	SMILES
168	COC(C)CC(=O)NC1CCC(CCN2CCN(c3nccc4c3OCC4)CC2)CC1 (racemic)
197 to 199	CNC(=O)c1ccccc1Nc1nc(Nc2cc3c(cc2OC)NC(=O)CCC3(C)C)ncc1Cl
92.5 to 94	CCN(CC)CCOc1ccc(Oc2ccc(S(C)(=O)=O)cc2)cc1
164	CCOC(=O)C(=O)Nc1cc(Br)c2ccccc2c1NC(=O)C(=O)OCC
158 to 159	CCOC(=O)CNC(=O)Nc1ccc(OC)cc1F
167 to 169	CC(=Cc1ccc(C)cc1)COc1cc(C)c(NC=O)c(C)c1C
164 to 165	O=C1c2ccccc2C(=O)N1CC#CC1=CCN=C(c2ccccc2F)c2cc(Cl)ccc21
161 to 164	CC12CCC3C(C=CC4=CC(=O)CCC43CO)C1CCC2C(=O)CO (stereo not given)
113 to 115	Cn1ncc2c(c1=O)OCCNC2Cc1ccccc1 (stereo not given)
226 to 230	CCC(C)C(C)C(=O)Nc1ccc2c(C)cn3c(=O)c(C(=O)NCCN4CCN(C(c5ccccc5)c5ccccc5)CC4)cnc3c2c1 (stereo not given)
126 to 127	CC(C)Oc1ccc(-c2nc(O)c(C(=O)O)s2)cc1
160	CC(C)N(CC(O)COc1ccccc1C(=O)Nc1cccc2[nH]ccc12)C(C)C (stereo not given)
171 to 174	O=C(c1ccc(-c2ccccc2)nc1)N1Cc2cccn2Cc2ccccc21
131 to 133	Nc1ccc(-c2cc(OCCCCCC(=O)O)nc(-c3ccccc3)c2)cc1
159 to 161	NC(=O)c1cc(O)ccc1Cl
91 to 92	CCCCCCCCCCCCCCCCCNC(=O)OCCOCCOC(=O)NCc1ccccn1
57 to 59	CNN(Cc1ccccc1N)c1ccccc1
67 to 69	COc1cc(N)c(Cl)cc1C(=O)NCC1CCN(CCCCCNCc2cccs2)CC1
103 to 105	Clc1nc(N2CCOCC2)c2ccccc2n1
66	CC(C)OC(=S)SSCCSSC(=S)OC(C)C
75 to 78	COc1ccc(S(=O)(=O)C(CCCCc2ccccc2)(CC(=O)O)c2ccccc2)cc1 (stereo not given)
295	NS(=O)(=O)c1ccc(-c2noc(-c3ncn4c(C(F)(F)F)cc(-c5ccc(C(F)(F)F)cc5)nc34)n2)s1

SMILES	melting point [°C]
Cc1cc(C2=NOC(c3cc(Cl)cc(Cl)c3)(C(F)(F)F)C2)ccc1C(=O)Nc1ncc(C#N)cn1 (stereo not given)	118 to 121
CC1(C)COC(=O)[C@@H]1Oc1ccc(C#N)c(C(F)(F)F)c1	89.9 to 90.7
